Here are results for 2 molecules from article PMC9516332 (Frontiers in Oncology, 2022).

Holding throughout (test): Kinase panel profiling at 1 µmol/L (MSA or IMAP), percentage inhibition
Common to all, as to type: biochemical

The target of assay [1] is panel of 255 wild-type kinases (Homo sapiens, UniProt P21802). Conditions: kinase FGFR2; 1 µmol/L single concentration; read-out: %-inhibition at 1 µmol/L, FGFR2.
Assay [2] addresses panel of 255 wild-type kinases (Homo sapiens, UniProt P78362). Conditions: kinase SRPK2; 1 µmol/L single concentration; read-out: %-inhibition at 1 µmol/L, SRPK2.
In assay [3] the target is panel of 255 wild-type kinases (Homo sapiens, UniProt Q04912). As to conditions: kinase RON; 1 µmol/L single concentration; read-out: %-inhibition at 1 µmol/L, RON.
For assay [4], the target named is panel of 255 wild-type kinases (Homo sapiens, UniProt Q16539). As to conditions: p38α; 1 µmol/L single concentration; read-out: %-inhibition, p38α.
Assay [5] addresses T1, panel of 255 wild-type kinases (Homo sapiens, UniProt Q8TDC3).
T1 sequence (Q8TDC3 1-778): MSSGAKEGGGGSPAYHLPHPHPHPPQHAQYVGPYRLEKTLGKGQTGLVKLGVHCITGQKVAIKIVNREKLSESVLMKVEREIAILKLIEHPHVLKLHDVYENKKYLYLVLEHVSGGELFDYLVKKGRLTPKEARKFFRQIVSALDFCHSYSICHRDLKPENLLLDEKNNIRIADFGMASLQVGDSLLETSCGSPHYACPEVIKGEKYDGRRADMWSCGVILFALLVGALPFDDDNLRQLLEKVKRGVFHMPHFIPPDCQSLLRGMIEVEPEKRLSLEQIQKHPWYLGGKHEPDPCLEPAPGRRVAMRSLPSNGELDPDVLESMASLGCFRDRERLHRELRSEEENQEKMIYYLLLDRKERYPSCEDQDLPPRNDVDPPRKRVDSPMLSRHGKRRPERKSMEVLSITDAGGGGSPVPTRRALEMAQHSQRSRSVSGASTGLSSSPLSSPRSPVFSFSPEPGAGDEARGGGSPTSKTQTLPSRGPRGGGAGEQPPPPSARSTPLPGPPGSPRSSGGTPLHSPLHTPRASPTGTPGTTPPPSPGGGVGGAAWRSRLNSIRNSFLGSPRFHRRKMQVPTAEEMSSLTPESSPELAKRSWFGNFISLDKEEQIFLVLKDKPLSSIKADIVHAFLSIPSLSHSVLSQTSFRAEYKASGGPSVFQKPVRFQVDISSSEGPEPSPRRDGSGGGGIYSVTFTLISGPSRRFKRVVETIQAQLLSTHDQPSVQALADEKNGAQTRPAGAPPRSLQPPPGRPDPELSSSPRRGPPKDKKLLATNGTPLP
Conditions: BRSK1 kinase assay; 1 µmol/L single concentration; read-out: %-inhibition BRSK1.

Assay [6] addresses panel of 255 wild-type kinases (Homo sapiens, UniProt P48729). Conditions: kinase CK1α; 1 µmol/L single concentration; read-out: %-inhibition at 1 µmol/L, CK1α.
The target of assay [7] is panel of 255 wild-type kinases (Homo sapiens, UniProt P07949). Conditions: kinase RET; 1 µmol/L single concentration; read-out: %-inhibition at 1 µmol/L, RET.
In assay [8] the target is panel of 255 wild-type kinases (Homo sapiens, UniProt P49761). Conditions: kinase CLK3; 1 µmol/L single concentration; read-out: %-inhibition at 1 µmol/L, CLK3.
For assay [9], the target named is panel of 255 wild-type kinases (Homo sapiens, UniProt Q96GD4). As to conditions: AurB kinase assay; 1 µmol/L single concentration; read-out: %-inhibition AurB.
Assay [10] deals with panel of 255 wild-type kinases (Homo sapiens, UniProt Q9UK32). As to conditions: kinase RSK4; 1 µmol/L single concentration; read-out: %-inhibition at 1 µmol/L, RSK4.
Assay [11] addresses panel of 255 wild-type kinases (Homo sapiens, UniProt P49137). As to conditions: kinase MAPKAPK2; 1 µmol/L single concentration; read-out: %-inhibition at 1 µmol/L, MAPKAPK2.
Assay [12] addresses panel of 255 wild-type kinases (Homo sapiens, UniProt P04629). Conditions: kinase TRKA; 1 µmol/L single concentration; read-out: %-inhibition at 1 µmol/L, TRKA.
Assay [13] has as its target panel of 255 wild-type kinases (Homo sapiens, UniProt Q15349). As to conditions: kinase RSK3; 1 µmol/L single concentration; read-out: %-inhibition at 1 µmol/L, RSK3.
Assay [14] deals with T2, panel of 255 wild-type kinases (Homo sapiens, UniProt Q8IWQ3).
T2 sequence (Q8IWQ3 1-736): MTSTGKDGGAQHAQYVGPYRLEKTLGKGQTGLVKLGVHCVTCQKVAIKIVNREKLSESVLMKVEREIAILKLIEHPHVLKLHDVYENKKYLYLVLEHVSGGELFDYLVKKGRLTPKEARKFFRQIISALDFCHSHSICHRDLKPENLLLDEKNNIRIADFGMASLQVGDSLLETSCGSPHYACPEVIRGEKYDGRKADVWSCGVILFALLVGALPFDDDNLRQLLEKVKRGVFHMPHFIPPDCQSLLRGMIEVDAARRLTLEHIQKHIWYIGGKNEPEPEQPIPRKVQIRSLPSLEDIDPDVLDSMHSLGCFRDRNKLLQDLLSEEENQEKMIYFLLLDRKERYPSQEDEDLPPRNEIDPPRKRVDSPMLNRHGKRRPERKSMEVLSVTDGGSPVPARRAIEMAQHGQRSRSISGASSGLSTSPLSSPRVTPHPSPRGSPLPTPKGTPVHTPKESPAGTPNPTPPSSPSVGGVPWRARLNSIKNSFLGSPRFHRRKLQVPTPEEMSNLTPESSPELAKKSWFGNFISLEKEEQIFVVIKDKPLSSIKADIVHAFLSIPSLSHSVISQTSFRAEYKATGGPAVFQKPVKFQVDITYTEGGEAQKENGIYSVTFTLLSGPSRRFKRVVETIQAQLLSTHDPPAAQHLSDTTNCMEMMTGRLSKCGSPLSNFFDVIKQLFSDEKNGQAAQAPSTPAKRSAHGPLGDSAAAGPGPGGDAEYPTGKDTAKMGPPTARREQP
As to conditions: BRSK2 kinase assay; 1 µmol/L single concentration; read-out: %-inhibition BRSK2.

Assay [15] deals with panel of 255 wild-type kinases (Homo sapiens, UniProt Q9UPE1). Conditions: MSSK1; 1 µmol/L single concentration; read-out: %-inhibition, MSSK1.

Structures are written as SMILES.

As to `Cc1cc(Nc2ncnc3ccc(NC4=NC(C)(C)CO4)cc23)ccc1Oc1ccn2ncnc2c1` [tucatinib], the inhibition at 1 µM in [1] is 6%; in assay [2] it was -0.581%; in assay [3], 2.23%; in assay [4], 1.53%; in assay [5] it was 0.339%; in assay [6] it was 0.588%. Besides, the inhibition at 1 µM is 35% in [7]; 5.42% in assay [8]; -0.568% in [9]; 0.229% in assay [10]; -28% in assay [11]; 20% in assay [12]. Besides, the figures for the inhibition at 1 µM in assay [13], in [14] and in [15] were 2.84%, 7% and 1.14%, respectively.

With `C=CC(=O)N1CCC([C@@H]2CCNc3c(C(N)=O)c(-c4ccc(Oc5ccccc5)cc4)nn32)CC1` [zanubrutinib], the inhibition at 1 µM is 2.54% in assay [1]; -2.35% in [2]; 5% in [3]; -1.11% in assay [4]; -1.87% in [5]; -0.607% in assay [6]. The inhibition at 1 µM was 16% in assay [7]; -3.73% in [8]; -4% in [9]; -6% in assay [10]; -9% in [11]; 9% in assay [12]. In addition, the inhibition at 1 µM is -7% in [13], 0.0746% in assay [14] and -2.31% in assay [15].
